Measured values from the NIST ThermoML archive (doi:10.1016/j.fluid.2008.06.006).
Numbers after ± are expanded uncertainties.

Tests used:
[1] = xn = mol fraction of the nth substance listed; conditions: 303.15 K, Maximal bubble pressure
[2] = for mass density: 298.15 K, 101.33 kPa; for mass density / vapor or sublimation pressure: Liquid; for surface tension liquid-gas: 303.15 K, Ring tensiometer
[3] = refractive index (Na D-line) (dimensionless); conditions: 298.15 K; 101.33 kPa; Liquid; Standard Abbe refractometry

CC(C)OC(C)C [diisopropyl ether] + C1CCCCC1
[1]
Conditions | surface tension liquid-gas [mN/m]
x1 = 0.049 | 23.3 ± 0.26
x1 = 0.098 | 22.7 ± 0.26
x1 = 0.199 | 21.4 ± 0.26
x1 = 0.301 | 20.7 ± 0.26
x1 = 0.403 | 19.75 ± 0.25
x1 = 0.509 | 19 ± 0.25
x1 = 0.622 | 18.3 ± 0.25
x1 = 0.727 | 17.8 ± 0.25
x1 = 0.837 | 17.3 ± 0.25
x1 = 0.936 | 16.9 ± 0.25
x1 = 0.967 | 16.8 ± 0.25

C1CCCCC1 [cyclohexane]
Conditions | mass density [kg/m3] | refractive index | surface tension liquid-gas [mN/m]
[2] | 773.84 ± 0.25 | – | 24.1 ± 0.38
[3] | – | 1.42508 ± 0.00031 | –

[2]
Conditions | vapor or sublimation pressure [kPa]
302.71 K | 16.01 ± 0.18
312.45 K | 24.02 ± 0.19
318.13 K | 30.03 ± 0.24
324.4 K | 38.02 ± 0.28
329.08 K | 45.03 ± 0.32
332.63 K | 51.01 ± 0.36
336.88 K | 59.01 ± 0.4
340.25 K | 66.01 ± 0.44
343.34 K | 73.02 ± 0.47
346.22 K | 80.03 ± 0.51
348.89 K | 87.02 ± 0.54
351.4 K | 94.02 ± 0.58
354.06 K | 101.9 ± 0.6

CC(C)=O [acetone]
[2], Ebulliometric method (Recirculating still)
Conditions | vapor or sublimation pressure [kPa]
297.65 K | 30.06 ± 0.21
303.23 K | 38.04 ± 0.21
307.39 K | 45.04 ± 0.21
310.58 K | 51.08 ± 0.22
314.35 K | 59.07 ± 0.22
317.33 K | 66.06 ± 0.22
320.08 K | 73.08 ± 0.23
322.61 K | 80.07 ± 0.23
324.96 K | 87.09 ± 0.24
327.17 K | 94.07 ± 0.24
329.33 K | 101.35 ± 0.24

Conditions | mass density [kg/m3] | refractive index | surface tension liquid-gas [mN/m]
[2] | 784.23 ± 0.24 | – | 22.45 ± 0.37
[3] | – | 1.35732 ± 0.00031 | –

CC(C)OC(C)C [diisopropyl ether]
[2], Ebulliometric method (Recirculating still)
Conditions | vapor or sublimation pressure [kPa]
293.25 K | 16.02 ± 0.2
302.42 K | 24.02 ± 0.2
307.79 K | 30.02 ± 0.21
313.73 K | 38.02 ± 0.21
318.15 K | 45.02 ± 0.21
321.52 K | 51.01 ± 0.22
325.55 K | 59.01 ± 0.22
328.74 K | 66.01 ± 0.22
331.67 K | 73.01 ± 0.23
334.38 K | 80.01 ± 0.23
336.91 K | 87.01 ± 0.23

Conditions | mass density [kg/m3] | refractive index | surface tension liquid-gas [mN/m]
[2] | 718.34 ± 0.45 | – | 16.7 ± 0.32
[3] | – | 1.36644 ± 0.00032 | –

CC(C)OC(C)C [diisopropyl ether] + CC(C)=O
[1]
Conditions | surface tension liquid-gas [mN/m]
x2 = 0.046 | 16.75 ± 0.25
x2 = 0.089 | 16.8 ± 0.25
x2 = 0.187 | 16.95 ± 0.25
x2 = 0.29 | 17.3 ± 0.25
x2 = 0.39 | 17.65 ± 0.25
x2 = 0.499 | 18.05 ± 0.25
x2 = 0.61 | 18.6 ± 0.25
x2 = 0.722 | 19.2 ± 0.25
x2 = 0.829 | 20.15 ± 0.25
x2 = 0.93 | 21.3 ± 0.26
x2 = 0.973 | 21.94 ± 0.26

CC(C)=O [acetone] + C1CCCCC1
[1]
Conditions | surface tension liquid-gas [mN/m]
x1 = 0.047 | 23.85 ± 0.26
x1 = 0.091 | 23.6 ± 0.26
x1 = 0.185 | 23.1 ± 0.26
x1 = 0.298 | 22.7 ± 0.26
x1 = 0.403 | 22.4 ± 0.26
x1 = 0.513 | 22.2 ± 0.26
x1 = 0.621 | 22.1 ± 0.26
x1 = 0.736 | 22.05 ± 0.26
x1 = 0.842 | 22.15 ± 0.26
x1 = 0.943 | 22.4 ± 0.26
